Where “and” joins values, the source holds several entries; their conditions need not be identical. Identical values can stand only once. Like-named read-outs stand apart in the source and are kept apart here.
What was measured:
[1] = test system: phospholipase/lipase MPIaG
Procedure: Particularly, enzyme activity was measured by the following two methods. […] The second method was spectrophotometric assay as standard method of the present invention. […] The increasing rate of para-nitrophenol hydrolyzed from the substrate was continuously measured at OD405. Unless informed otherwise, p-nitrophenyl caprate (C10) was used as a substrate. 1 unit (U) of enzyme was defined as the enzyme amount capable of producing 1 μmol of para-nitrophenol via hydrolysis.

[2] = test system: phospholipase/lipase MPIaG; assay type: biochemical, tidal flat metagenome

| SMILES | Enzyme activity relative value (%) ([1]; organic solvent 20%) | Enzyme activity relative value (%) ([1]; organic solvent 30%) | Enzyme activity relative value (%) ([1]; organic solvent 50%) | Enzyme activity relative value (%) ([1]; organic solvent 60%) | Enzyme activity relative value (%) ([2]; additive 1 mM) | Enzyme activity relative value (%) ([2]; additive 5 mM) | Enzyme activity relative value (%) ([2]; additive 10 mM) | further results |
| --- | --- | --- | --- | --- | --- | --- | --- | --- |
| CC(C)O [2-propanol] | 101% | 97% | 96% | 99% | – | – | – | – |
| [Cl-].[Cl-].[Zn+2] [ZnCl2] | – | – | – | – | 107% | 9% | 5% | – |
| [Cl][Cu][Cl] [CuCl2] | – | – | – | – | 135% | 32% | 11% | – |
| [Ca+2].[Cl-].[Cl-] [CaCl2] | – | – | – | – | 466% | 1015% | 994% | increase of enzyme activities [2]: approximately 10 times |
| [Cl-].[Cl-].[Mg+2] [MgCl2] | – | – | – | – | 105% | 198% | 142% | – |
| C[S+](C)[O-] [DMSO, dimethyl sulfoxide] | 98% | 97% | 98% | 81% | – | – | – | – |
| O=S(=O)([O-])[O-].[Fe+2] [FeSO4] | – | – | – | – | 137% | 142% | 151% | – |
| CC(C)=O [Acetone] | 96% | 100% | 96% | 99% | – | – | – | – |
| OCCS [2-mercaptoethanol] | – | – | – | – | 105% | 108% | 80% | – |
| O[C@H](CS)[C@H](O)CS (racemic) [DTT, dithiothreitol] | – | – | – | – | 93% | 107% | 105% | – |
| O=C(O)CN(CCN(CC(=O)O)CC(=O)O)CC(=O)O [EDTA, ethylenediaminetetraacetic acid] | – | – | – | – | – | – | – | effect on enzyme activities (in words) [2]: strongly inhibited |
| [Cl][Ni][Cl] [NiCl2] | – | – | – | – | 62% | 23% | 7% | – |
| CCO [Ethanol] | 100% | 95% | 94% | 98% | – | – | – | – |
| CO [Methanol] | 100% | 101% | 93% | 98% | – | – | – | – |
| CC#N [Acetonitrile] | 100% | 99% | 98% | 99% | – | – | – | – |
| O=S(=O)(F)Cc1ccccc1 [PMSF, phenyl methyl sulfonyl fluoride] | – | – | – | – | 94% | 107% | 105% | – |
| CN(C)C=O [DMF, dimethylformamide] | 99% | 100% | 93% | 98% | – | – | – | – |
| [Cl-].[Cl-].[Co+2] [CoCl2] | – | – | – | – | – | – | – | Enzyme activity relative value (%) [2]: 120% and 177% and 116% |

Source: patent publication US9441018B2, “Gene from tidal flat metagenome and a novel protein displaying both phospholipase and lipase activities” (KOREA RESEARCH INSTITUTE OF BIOSCIENCE AND BIOTECHNOLOGY, priority 2011, dated 2016)
